Results on 25 compounds are retold here after patent US20210238173A1, “MITOGEN-ACTIVATED PROTEIN KINASE KINASE 7 INHIBITORS” (Yeda Research and Development Co. Ltd., priority 2018, published 2021).

Several values for one entry are separate records, joined by “and”; a condition that tells them apart may be missing. Equal values may be shown once.

Usually IC50 stands for the midpoint of a concentration-inhibition curve. Usually EC50 stands for the concentration that produces a half-maximal response. What is called half-life is the time needed for the level to fall by half in the phase considered.

One data set addresses T1, MKK7 (Homo sapiens, UniProt O14733).
T1 construct: purchased Nanosyn (contract assay)
T1 sequence (O14733 1-419): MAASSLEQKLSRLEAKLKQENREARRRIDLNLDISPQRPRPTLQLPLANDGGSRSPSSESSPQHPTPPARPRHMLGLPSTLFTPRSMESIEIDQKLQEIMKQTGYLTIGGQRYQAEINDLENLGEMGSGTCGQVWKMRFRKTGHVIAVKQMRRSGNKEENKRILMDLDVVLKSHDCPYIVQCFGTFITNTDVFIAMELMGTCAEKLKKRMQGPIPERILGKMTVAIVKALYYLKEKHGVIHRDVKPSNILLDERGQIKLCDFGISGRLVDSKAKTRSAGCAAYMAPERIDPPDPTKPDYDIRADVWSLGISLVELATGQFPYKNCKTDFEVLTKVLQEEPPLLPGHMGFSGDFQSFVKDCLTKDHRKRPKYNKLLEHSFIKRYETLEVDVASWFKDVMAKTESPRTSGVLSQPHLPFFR
As to the kind of experiment: In vitro kinase activity assay for MKK7 (Nanosyn). The format is biochemical. The following applies: read-out: MKK7 IC50 in vitro. How it is done:
Based on visual inspection of the top 500 predictions, 10 compounds were selected for synthesis and testing (see, Table 1). The “Docking rank” is given in its respective run, whereas four virtual libraries of acrylamides were docked separately, based on the amine precursor for the acrylamide (primary or secondary aliphatic amines, primary or secondary aromatic amines). In vitro kinase activity assay was carried out by Nanosyn, as described below.
In Vitro Activity Assays for MKK7 or MKK4 (Carried by Nanosyn):
Exemplary test compounds, according to some embodiments of the present invention, were diluted in DMSO to a final concentration that ranged from 10 μM to 0.0565 nM, while final concentration of DMSO in all assays was kept at 1%. Reference compound, Staurosporine, was tested in a similar manner. […] After incubation, activity of now activated JNK1 was tested in the presence of 30 μM ATP ATP for 17 h (MKK7) or 4 h (MKK4).

The next data set deals with pJNK in HEK293 cells. Nature of the data set: In-cell western (ICW) pJNK inhibition in HEK293. The data set is classed as cell-based. The following applies: Homo sapiens, HEK293, HEK293, ICW, 2 h pre-incubation, sorbitol stimulation. As for the experimental part: HEK293, Beas2B and 3T3 cells were plated 24 hours before procedure on 384 well clear bottom black flat plates (Corning) pre-coated with Fibronectin (Sigma) diluted in PBS to a concentration of 5 μg/ml 45 minutes prior to cells introduction. Cells were plated using Multidrop™ Combi reagent dispenser (Thermo Fisher Scientific). Compound, reagents and antibody dispensing as well as washes were performed with a CyBio liquid handler (Analytik). Cells were pre-incubated with a small molecule or up to 1% DMSO for 2 h before fixation. HEK293, 3T3 or Beas2B cells were treated with 0.6M/0.2M/0.2M D-Sorbitol/PBS (Sigma) for 20/40/40 min. respectively, before fixation. Media was removed and wells were immediately fixed with 150 μl per well of 3.7% formaldehyde/PBS fixing solution for 20 min. Formaldehyde was then aspired and cells were permeabilized with 150 μl of 0.5% Triton x-100/PBS solution for 10 min. After aspiration cells were washed with ice-cold methanol and stored at −20° C., for 10 min. Methanol was aspired and cells were blocked with 150 μl blocking buffer (LICOR) for 90 min. Primary antibody Phospho-SAPK/JNK T183/Y185 (CST; 9251S) was diluted 1:1000 in blocking buffer and was applied 50 μl per well, except control wells to which only blocking buffer was applied, O.N. (16 h) at 4° C. with mild shaking. Primary antibody was aspired, wells were washed with 150 μl 0.1% Tween20/PBS (Sigma) washing solution three times for 7 min. IRDye® 800CW Goat anti-Rabbit IgG Secondary antibody (LICOR) was then diluted 1:1200 in blocking buffer with 50 μl applied per well on control wells only (no CellTag control), then CellTag700 (1:2000) was added to the solution and 50 μl were added to all experiment wells, for 1 h at room temperature. Wells were aspired and washed again with 150 μl 0.1% Tween20/PBS (Sigma) washing solution three times for 7 min. plate was dried and scanned with Odyssey CLx imaging system at 700 nm and 800 nm (Licor). Wells signals were analyzed with Odyssey software. The signal was normalized by the CellTag700 signal.
To rapidly assess the cellular activity (EC50) with full dose response curves of the MKK7 covalent inhibitors, according to some embodiments of the present invention, an in-cell western assay was adapted to a 384 well plate format over traditional western blot, and monitored phospho-JNK (pJNK) levels in response to osmotic shock. We first characterized the dynamics of pJNK in response to sorbitol. Sufficient dynamic range for pJNK is achieved at 20 minutes in HEK293 cells and at 40 minutes in 3T3 and Beas2B cells. The compound's activity was assessed by pre-treating cells with either compound or DMSO for 2 hours, followed by Sorbitol stimulation. The response of pJNK, and its substrates, pc-Jun and pATF2, was measured, as well as pP38, which is a substrate of MKK4 but not MKK7, and pERK in HEK293 cells, and the results are presented in Table 5 below.

Data set [1] can be described thus: Metabolic stability in human liver microsomes. The format is in vitro ADME. The following applies: for half-life: human, liver microsomes. From the text: (§1) A reference compound, REF1250, was used in this study: […]
On the technique in general: Liver microsomes are vesicles of endoplasmic reticulum, rich in cytochrome P450 enzymes.

A short description of data set [2]: Metabolic stability in rat liver microsomes. The following applies: for half-life: rat, liver microsomes. The data set is classed as in vitro ADME.
Description: as §1

A short description of data set [3]: Metabolic stability in monkey liver microsomes. The data set is classed as in vitro ADME.
Description: as §1

Data set [4] can be described thus: Metabolic stability in dog liver microsomes. The format is in vitro ADME. The following applies: for half-life: dog, liver microsomes.
Description: as §1

Data set [5] in a line: Metabolic stability in mouse liver microsomes. The data set is classed as in vitro ADME. The following applies: for half-life: mouse, liver microsomes.
Description: as §1

Consider `C=CC(=O)Nc1cccc2[nH]ncc12` [GO1], for which, at MKK7, the IC50 was over 10000 nM.

Regarding `C=CC(=O)NC1CCC(c2nc(-c3ccccc3)n[nH]2)CC1` (stereo not shown) [GO2], the IC50 on MKK7 was over 10000 nM.

Take `C=CC(=O)Nc1ccc(N2CCNC2=O)cc1` [GO5]: on MKK7, the IC50 worked out at 502 nM.

With `C=CC(=O)N1CCC(c2c[nH]c3ncccc23)CC1` [GO6], the IC50 on MKK7 was over 10000 nM.

As to `C=CC(=O)Nc1ccc2c(c1)C(=O)NC2` [GO7], at MKK7, the IC50 was 873 nM.

As for `C=CC(=O)NCC1CCCN(c2cc(NC)ncn2)C1` (stereo not shown) [GO8], the IC50 on MKK7 was over 10000 nM.

Take `C=CC(=O)NCC1CCCN1c1cc(NC)ncn1` (stereo not shown) [GO9]: the IC50 on MKK7 was over 10000 nM.

In the case of `C=CC(=O)N1CCN(CC2=NC(C)N=N2)CC1` (stereo not shown) [GO10], the IC50 on MKK7 is over 10000 nM.

Consider `C=CC(=O)N1CCOC(c2nc(CCC)n[nH]2)C1` (stereo not shown) [GO14], for which the 50% inhibitory concentration (IC50) at MKK7 was over 10000 nM.

In the data set with pJNK in HEK293 cells, `C=CC(=O)Nc1cccc(-c2n[nH]c3c([N+](=O)[O-])cccc23)c1` [GO29] displayed an EC50 of over 10000 nM. At MKK7, the 50% inhibitory concentration (IC50) is 27 nM.

Regarding `C=CC(=O)Nc1cccc(-c2n[nH]c3c2CCC3)c1` [GO49], the IC50 at MKK7 came to 73 nM.

`C=CC(=O)Nc1cccc(-c2n[nH]c3c2CC(C)(C)CC3)c1` [GO54] had an EC50 with pJNK in HEK293 cells of 3300 nM. In addition, the “% remaining @ 40 min” value in data set [1] is reported as 20%; in data set [2], 4%; in data set [3], 1%; in data set [4], 1%; in data set [5] it was 18%. Besides, the half-life was found to be 16 min in data set [1]; 8 min in data set [2]; 5 min in data set [3]; 6 min in data set [4]; 11 min in data set [5]. Also, the IC50 on MKK7 is 10 nM.

The compound `C=CC(=O)Nc1cccc(-c2n[nH]c3c2COCC3)c1` [GO55] displayed an EC50 in the data set with pJNK in HEK293 cells of over 10000 nM. In addition, the “% remaining @ 40 min” value turned out to be 13% in data set [1]; 40% in data set [2]; 0% in data set [3]; 6% in data set [4]; 4% in data set [5]. Also, the half-life in data set [1] was 13 min; in data set [2] it was 29 min; in data set [3] it was under 5 min; in data set [4] it was 9 min; in data set [5], 8 min. On MKK7, the IC50 came out at 64 nM.

Regarding `C=CC(=O)Nc1cccc(-c2n[nH]c3c2CN(C(=O)OC(C)(C)C)CC3)c1` [GO61], the EC50 with pJNK in HEK293 cells was over 10000 nM. Moreover, the 50% inhibitory concentration (IC50) at MKK7 worked out at 193 nM.

`C=CC(=O)Nc1cccc(-c2n[nH]c3c2CNCC3)c1` [GO64] displayed a half-maximal effective concentration (EC50) in the data set on pJNK in HEK293 cells of over 10000 nM. Also, the IC50 at MKK7 worked out at 2460 nM.

For `C#CCCCC(=O)N1CCc2[nH]nc(-c3cccc(NC(=O)C=C)c3)c2C1` [GO65], on MKK7, the IC50 was found to be 30 nM.

`C=CC(=O)Nc1cc(-c2n[nH]c3ccccc23)ccc1C` [GO72]: the EC50 in the data set on pJNK in HEK293 cells worked out at 4200 nM. Also, the “% remaining @ 40 min” value is recorded as 11% in data set [1]; 0% in data set [2]; 0% in data set [3]; 0% in data set [4]; 0% in data set [5]. The half-life in data set [1] is 12 min; in data set [2], under 5 min; in data set [3] it was under 5 min; in data set [4], under 5 min; in data set [5], under 5 min. In addition, the half-maximal inhibitory concentration (IC50) on MKK7 was 26 nM.

Consider `C=CC(=O)Nc1cc(C#N)cc(-c2n[nH]c3ccccc23)c1` [GO73], for which the “% remaining @ 40 min” value in data set [1], in data set [2], in data set [3], in data set [4] and in data set [5] was 0% throughout. In addition, the half-life in data set [1], in data set [2], in data set [3], in data set [4] and in data set [5] was under 5 min each time. Further, the IC50 on MKK7 worked out at 4 nM.

On to `CN(C)C/C=C/C(=O)Nc1cccc(-c2n[nH]c3ccccc23)c1` [GO74], for which the IC50 on MKK7 was determined as 267 nM.

Take `C=CC(=O)Nc1cccc(-c2n[nH]c3c(C)cccc23)c1` [GO81]: the IC50 on MKK7 was 812 nM.

Turning to `C=CC(=O)Nc1cccc(-c2n[nH]c3cc(OC)ccc23)c1` [GO83], the “% remaining @ 40 min” value amounted to 1% in data set [1]; 48% in data set [2]; 0% in data set [3]; 0% in data set [4]; 0% in data set [5]. The half-life was under 5 min in data set [1], 35 min in data set [2], under 5 min in data set [4] and 5 min in data set [5]. Further, at MKK7, the IC50 was determined as 11 nM.

With `C=CC(=O)Nc1cccc(-c2n[nH]c3c(F)cccc23)c1` [GO88], in the data set with pJNK in HEK293 cells, the half-maximal effective concentration (EC50) is 1800 nM. Moreover, the “% remaining @ 40 min” value worked out at 0% in data set [1]; 2% in data set [2]; 0% in data set [3]; 0% in data set [4]; 0% in data set [5]. Further, the half-life is under 5 min in data set [1]; 7 min in data set [2]; under 5 min in data set [3]; under 5 min in data set [4]; under 5 min in data set [5]. Besides, on MKK7, the IC50 was 4 nM.

Consider `C=CC(=O)Nc1cccc(-c2n[nH]c3c(Cl)cccc23)c1` [GO89], for which the “% remaining @ 40 min” value in data set [1] is reported as 3%; in data set [2], 1%; in data set [3], 0%; in data set [4], 0%; in data set [5], 0%. The half-life in data set [1] is 8 min; in data set [2], 6 min; in data set [3] it was under 5 min; in data set [5] it was under 5 min. In addition, the IC50 at MKK7 was 47 nM.

`C=CC(=O)Nc1cccc(-c2n[nH]c3cc(-c4ccccc4)ccc23)c1` [GO101] came in with an EC50 in the data set with pJNK in HEK293 cells of 1000 nM. The IC50 on MKK7 worked out at 11 nM.

As for `COc1cc(OC)cc(C(C#N)(CCCN(C)CCc2ccc(OC)c(OC)c2)C(C)C)c1` (stereo not shown) [REF1250, reference compound], the “% remaining @ 40 min” value in data set [1] was 5% and 3%; in data set [2] it was 3% and 1%; in data set [3] it was 0%; in data set [4], 12% and 5%; in data set [5], 2% and 1%. Besides, the half-life in data set [1] is 9 min; in data set [2], 8 min; in data set [3] it was under 5 min; in data set [4], 12 min; in data set [5] it was 7 min. Also, the Halflife in data set [2] and in data set [5] was 6 min in each case.
